Experimental data: patent US20260374773A1, “MULTI-CYCLIC IRAK AND FLT3 INHIBITING COMPOUNDS AND USES THEREOF” (CHILDREN'S HOSPITAL MEDICAL CENTER, priority 2022, published 2026)

How the values were obtained:
FLT3 K663Q = molecular target: T1, FLT3 K663Q (Homo sapiens, UniProt P36888, K663Q); assay: DiscoverX KINOMEscan active site-directed competition binding, FLT3 K663Q; details: no ATP
T1 sequence (P36888 27-993 K663Q): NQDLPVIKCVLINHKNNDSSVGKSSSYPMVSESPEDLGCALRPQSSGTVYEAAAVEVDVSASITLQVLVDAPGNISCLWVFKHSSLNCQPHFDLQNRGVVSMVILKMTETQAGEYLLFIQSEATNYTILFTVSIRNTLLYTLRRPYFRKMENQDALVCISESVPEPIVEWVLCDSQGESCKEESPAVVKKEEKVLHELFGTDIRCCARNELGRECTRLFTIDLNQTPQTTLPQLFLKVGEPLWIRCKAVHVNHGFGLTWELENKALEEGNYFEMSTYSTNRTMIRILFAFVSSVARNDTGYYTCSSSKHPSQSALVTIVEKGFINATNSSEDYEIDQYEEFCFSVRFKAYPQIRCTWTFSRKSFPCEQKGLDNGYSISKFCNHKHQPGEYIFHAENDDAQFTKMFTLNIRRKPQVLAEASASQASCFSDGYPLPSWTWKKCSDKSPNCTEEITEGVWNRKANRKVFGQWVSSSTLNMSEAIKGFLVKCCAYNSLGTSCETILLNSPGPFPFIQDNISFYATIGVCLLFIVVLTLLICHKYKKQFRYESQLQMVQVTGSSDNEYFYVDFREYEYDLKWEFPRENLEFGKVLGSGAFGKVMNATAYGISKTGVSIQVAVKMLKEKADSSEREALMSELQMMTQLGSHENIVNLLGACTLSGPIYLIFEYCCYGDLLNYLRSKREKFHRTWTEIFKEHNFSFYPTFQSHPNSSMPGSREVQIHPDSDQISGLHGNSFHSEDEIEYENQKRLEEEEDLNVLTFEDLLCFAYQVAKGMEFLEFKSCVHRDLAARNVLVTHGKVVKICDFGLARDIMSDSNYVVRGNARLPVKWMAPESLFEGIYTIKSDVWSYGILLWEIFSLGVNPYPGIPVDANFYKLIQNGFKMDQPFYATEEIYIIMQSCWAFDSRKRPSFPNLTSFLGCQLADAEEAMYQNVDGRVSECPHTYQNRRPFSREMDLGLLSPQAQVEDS
Text: (§1) Kinase binding data were obtained for various exemplary compounds prepared according to Examples 1-8 using the DiscoverX KINOMEscan® active site-directed competition binding site-directed assay protocol described below. […] As a result, the data report thermodynamic interaction affinities (Kd values), rather than IC50 values that are dependent on ATP concentrations. The assay uses a DNA-tagged version of the protein kinase, and an immobilized ligand bound to a solid support. Compounds that directly or indirectly prevent kinase binding to the immobilized ligand reduce the amount of kinase captured on the solid support, which is detected using an ultra-sensitive qPCR method. Affinity constants reported from the assay have been reported to be independent of the immobilized ligand used that is coupled to the solid support (See supplemental information in Fabian, M. A. et. al., (2005) Nat. Biotechnol. 23, 329-336; Wodicka, L. M. et. al., (2010) Chem. Biol. 17, 1241-1249.)
(§2) Kinase-tagged T7 phage strains were prepared in an E. coli host derived from the BL21 strain. E. coli were grown to log-phase and infected with T7 phage and incubated with shaking at 32 °C until lysis. The lysates were centrifuged and filtered to remove cell debris. The remaining kinases were produced in HEK-293 cells and subsequently tagged with DNA for qPCR detection. Streptavidin-coated magnetic beads were treated with biotinylated small molecule ligands for 30 minutes at room temperature to generate affinity resins for kinase assays. The liganded beads were blocked with excess biotin and washed with blocking buffer (SeaBlock (Pierce), 1% BSA, 0.05% Tween 20, 1 mM DTT) to remove unbound ligand and to reduce non-specific binding. […] Test compounds were prepared as 111x stocks in 100% DMSO. Kds were determined using an 11-point 3-fold compound dilution series with three DMSO control points. All compounds for Kd measurements are distributed by acoustic transfer (non-contact dispensing) in 100% DMSO. The compounds were then diluted directly into the assays such that the final concentration of DMSO was 0.9%. All reactions were performed in polypropylene 384-well plates. Each was a final volume of 0.02 mL. The assay plates were incubated at room temperature with shaking for 1 hour and the affinity beads were washed with wash buffer (1×PBS, 0.05% Tween 20). The beads were then re-suspended in elution buffer (1×PBS, 0.05% Tween 20, 0.5 μM nonbiotinylated affinity ligand) and incubated at room temperature with shaking for 30 minutes. The kinase concentration in the eluates was measured by qPCR. Binding constants (Kds) were calculated with a standard dose-response curve using the Hill equation. The Hill Slope was set to −1. Curves were fitted using a non-linear least square fit with the Levenberg-Marquardt algorithm.
as §1, with “9-12” for “1-8”
(§3) Kinase-tagged T7 phage strains were prepared in an E. coli host derived from the BL21 strain. […]

IRAK4 = molecular target: T2, IRAK4 (Homo sapiens, UniProt Q9NWZ3); assay: DiscoverX KINOMEscan active site-directed competition binding, IRAK4; details: no ATP
T2 sequence (Q9NWZ3 1-460): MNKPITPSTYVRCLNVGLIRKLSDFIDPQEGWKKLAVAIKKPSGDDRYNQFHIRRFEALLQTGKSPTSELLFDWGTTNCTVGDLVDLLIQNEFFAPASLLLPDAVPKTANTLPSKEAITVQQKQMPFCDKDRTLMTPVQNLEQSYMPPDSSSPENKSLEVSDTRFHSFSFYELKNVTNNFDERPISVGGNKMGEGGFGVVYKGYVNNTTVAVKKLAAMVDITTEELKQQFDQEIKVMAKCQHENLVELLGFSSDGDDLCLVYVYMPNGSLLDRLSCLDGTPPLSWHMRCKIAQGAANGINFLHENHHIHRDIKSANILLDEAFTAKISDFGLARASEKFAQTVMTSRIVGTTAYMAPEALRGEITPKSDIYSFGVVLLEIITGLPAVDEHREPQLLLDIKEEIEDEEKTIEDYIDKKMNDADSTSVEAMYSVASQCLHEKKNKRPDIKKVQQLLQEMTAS
Text: as §1, §2
as §1, with “9-12” for “1-8”
as §3

Kd (FLT3 K663Q; Table 19)	Kd (IRAK4; Table 18)	Kd (FLT3 K663Q; Table 13)	Kd (IRAK4; Table 12)	SMILES
2 nM	0.2 nM	–	–	COc1cn2ncc(-c3nc(N[C@H]4CNCC[C@@H]4F)ncc3F)c2nc1C(C)(C)O [Compound 6a, 2-(3-(5-fluoro-2-(((3S,4S)-4-fluoropiperidin-3-yl)amino)pyrimidin-4-yl)-6-methoxypyrazolo[1,5-a]pyrimidin-5-yl)propan-2-ol]
–	–	< 0.17 nM	< 0.17 nM	COc1cn2ncc(-c3nc(N[C@H]4CNCC[C@@H]4F)c(C#N)cc3F)c2nc1C1CC1 [Compound 7, 6-(5-cyclopropyl-6-methoxypyrazolo[1,5-a]pyrimidin-3-yl)-5-fluoro-2-(((3S,4S)-4-fluoropiperidin-3-yl)amino)nicotinonitrile]
0.82 nM	0.36 nM	–	–	COc1cn2ncc(-c3ccnc(N[C@H]4CNCC[C@@H]4F)n3)c2nc1C1CC1 [Compound 7a, 4-(5-cyclopropyl-6-methoxypyrazolo[1,5-a]pyrimidin-3-yl)-N-((3S,4S)-4-fluoropiperidin-3-yl)pyrimidin-2-amine]
–	–	1.1 nM	< 0.17 nM	COc1cn2ncc(-c3nc(N[C@H]4CNCC[C@@H]4F)c(C#N)cc3F)c2nc1C(C)(C)O [Compound 10, 5-fluoro-2-(((3S,4S)-4-fluoropiperidin-3-yl)amino)-6-(5-(2-hydroxypropan-2-yl)-6-methoxypyrazolo[1,5-a]pyrimidin-3-yl)nicotinonitrile]
0.44 nM	< 0.17 nM	–	–	COc1cn2ncc(-c3cncc(N[C@H]4CNCC[C@@H]4F)n3)c2nc1C1CC1 [Compound 12a, 6-(5-cyclopropyl-6-methoxypyrazolo[1,5-a]pyrimidin-3-yl)-N-((3S,4S)-4-fluoropiperidin-3-yl)pyrazin-2-amine]
–	–	1.6 nM	< 0.17 nM	COc1cn2ncc(-c3nc(N[C@H]4CNCC[C@@H]4F)c(F)cc3F)c2nc1C(C)(C)O [Compound 13, 2-(3-(3,5-difluoro-6-(((3S,4S)-4-fluoropiperidin-3-yl)amino)pyridin-2-yl)-6-methoxypyrazolo[1,5-a]pyrimidin-5-yl)propan-2-ol]
< 0.17 nM	< 0.17 nM	–	–	COc1cn2ncc(-c3nc(N[C@@H]4CCCNC4)ncc3F)c2nc1C1CC1 [Compound 14a, (R)-4-(5-cyclopropyl-6-methoxypyrazolo[1,5-a]pyrimidin-3-yl)-5-fluoro-N-(piperidin-3-yl)pyrimidin-2-amine]
0.21 nM	< 0.17 nM	–	–	COc1cn2ncc(-c3nc(N[C@H]4CNCC[C@@H]4F)ncc3F)c2nc1C1CC1 [Compound 15a, 4-(5-cyclopropyl-6-methoxypyrazolo[1,5-a]pyrimidin-3-yl)-5-fluoro-N-((3S,4S)-4-fluoropiperidin-3-yl)pyrimidin-2-amine]
